Measurements published in US20230183187A1, “QUINAZOLINE COMPOUNDS AS INHIBITORS OF PREMATURE TERMINATION CODONS” (CENTRE NATIONAL DE LA RECHERCHE SCIENTIFIQUE, priority 2020, published 2023).

Assays:
nonsense mutation W1268X = experiment: pAC99 dual reporter readthrough in HeLa cells, W1268X; type: cell-based, human; settings: 24 hours
Description: Different compounds of the invention have been tested for their ability to induce readthrough on the nonsense mutation W1268X or R213X in HeLa cells.
To this aim the inventors used the pAC99 dual reporter plasmid. This dual reporter is used to quantify stop-codon readthrough through the measurement of luciferase and beta-galactosidase (internal normalisation) activities. Readthrough levels for nonsense mutations were analysed in the presence or absence of tested molecules. Cells are seeded in a 6-well plate. The next day, cells are transfected with the reporter plasmid using the JetPei reagent (Invitrogen). The following day, they are rinsed with fresh medium, with or without readthrough inducers. Cells were harvested 24 hours later, with trypsin—EDTA (Invitrogen), lysed with Glo lysis buffer (Promega) and beta-galactosidase and luciferase activities were assayed as previously described. Readthrough efficiency was estimated by calculating the ratio of luciferase activity to beta-galactosidase activity obtained with the test construct, with normalisation against an in-frame control construct. At least five independent transfection experiments were performed for each assay.

Bax mRNA (target of p53) = experiment: RT-qPCR of Bax mRNA in HDQ-P1 cells; type: cell-based, human; settings: HDQ-P1, TLN68 80 μM, 48 hours, n=3
Description: (§1) For the analysis of mRNA levels for p53 and its transcriptional target genes, Bax, the inventors extracted total RNA from HDQ-P1 cells that had or had not been treated with G418 (400 μM) or TLN68 (80 μM) for 48 hours (RNeasy Mini Kit, Qiagen). The RNA was treated with DNAse I (RNase-free DNase) and quantified with a Nanodrop spectrometer (ThermoScientific). The absence of RNA degradation was confirmed by agarose gel electrophoresis. The first-strand cDNA was synthesized from 2 μg of total RNA, with random primers and the SuperScript II Reverse Transcriptase (Invitrogen), as recommended by the manufacturer. Quantitative PCR was then carried out on equal amounts of the various cDNAs, with a CFX96 thermocycler (Biorad), and the accumulation of products was monitored with the intercalating dye FastStart Universal SYBRGreen Master (ROX) reagent (Roche). The inventors quantified mRNA levels relative to three reference mRNAs: RPL32, Hprt1 and HMBS. In each experiment, results are expressed relative to those for untreated cells, for which the value obtained was set to 1. Relative levels of gene expression were calculated at early stages of PCR, when the amplification was exponential and might, therefore, be correlated with the initial number of copies of the transcript. […] For the quantification of each mRNA, three independent experiments (from biological replicates) were performed in triplicate. […]

HDQ-P1 cells = experiment: WST1 tetrazolium viability assay, HDQ-P1; type: cell-based, human; settings: HDQ-P1, 24 h, maximal dose used
Description: (§2) The inventors tested the effect of TLN68 on viability of NIH3T3, HDQ-P1 and HeLa cell lines by using a tetrazolium salt which is cleaved only by metabolically active cells. Cells were treated or not with a range of TLN68 doses during 24 h and viability was measured.

[1] = test system: TP53 R213X nonsense mutation; experiment: Dual reporter (lacZ/F-luc, pAC99) stop codon readthrough quantification, R213X, NIH3T3 cells; type: cell-based, mouse; settings: 24 h, each drug separately or together
Source text: Complementary oligonucleotides corresponding to TP53 R213X nonsense mutations and 9 nucleotides on both sides are ligated into the pAC99 dual reporter plasmid, as previously described (Premature stop codons involved in muscular dystrophies show a broad spectrum of readthrough efficiencies in response to gentamicin treatment, Bidou et al, Gene Therapy 1 Apr. 2004, 11(7):619-627). This dual reporter is used to quantify stop-codon readthrough through the measurement of luciferase and beta-galactosidase (internal calibration) activities, as previously described (Stahl et al, Versatile vectors to study recoding: conservation of rules between yeast and mammalian cells. Nucleic Acids Res 1995; 23:1557-60). Readthrough levels for nonsense mutations were analysed in the presence or absence of tested molecules. Cells were seeded in a 6-well plate. The next day, cells are transfected with the reporter plasmid in the presence of JetPei reagent (Invitrogen). The following day, they are rinsed with fresh medium, with or without readthrough inducers. […] Readthrough efficiency was estimated by calculating the ratio of luciferase activity to beta-galactosidase activity obtained with the test construct, with normalisation against an in-frame control construct. […]

[2] = test system: +1 programmed ribosomal frameshifting from OAZ1 gene; experiment: Frameshifting test, dual reporter; type: cell-based; settings: treated vs untreated cells (FIG. 8)
Source text: TLN468 has no impact on both −1 and +1 programmed ribosomal frameshifting (PRF). No significant difference is observed between treated and untreated cells (right and left bars respectively). TLN468 has been tested on −1 PRF from HIV-1 and +1 PRF from OAZ1 gene.

TP53-R213X mRNA = experiment: RT-qPCR of mutant p53 mRNA in HDQ-P1 cells; type: cell-based, human; settings: HDQ-P1, 48 hours; TLN68 80 μM, TLN309 40 μM; n=3
Description: as §1

NIH3T3 cells = experiment: WST1 tetrazolium viability assay, NIH3T3; type: cell-based, mouse; settings: NIH3T3, 24 h, maximal dose used
Description: as §2

SMILES: Cc1nc(NC(=N)N)nc2ccccc12 [TLN68]
- Inducting factor of readthrough as compared to untreated cells (measured on nonsense mutation W1268X) (nonsense mutation W1268X): 9
- induction of bax mRNA level relative to untreated (Bax mRNA (target of p53)): 3 fold
- viable cells (HDQ-P1 cells): 70%
- readthrough level [1]: 11%
- impact on +1 programmed ribosomal frameshifting [2]: no impact
- stabilisation of TP53-R213X mRNA relative to untreated (TP53-R213X mRNA): 6 fold
- viable cells (NIH3T3 cells): 80%
